Assay results published in publication PMC6010102, “N-thioalkylcarbazoles derivatives as new anti-proliferative agents: synthesis, characterisation and molecular mechanism evaluation” (Journal of Enzyme Inhibition and Medicinal Chemistry, 2018).

Test system: HeLa cells
Assay: TUNEL assay in HeLa cells
Assay type: cell-based, human
Settings: concentration equal to IC50, 24 h
Experimental: Apoptosis was detected by the TUNEL assay, according to the guidelines of the manufacturer (CF™488A TUNEL Assay Apoptosis Detection Kit, Biotium, Hayward, CA)[8]. Briefly, cells were grown on glass coverslips and, after treatment, they were washed trice with PBS, then methanol-fixed at −20 °C for 15 min. Fixed cells were washed trice with 0.01% (V/V) Triton X-100 in PBS and incubated with 100 µL of TUNEL equilibration buffer for 5 min. After its removal, 50 µL of TUNEL reaction mixture containing 1 µL of terminal deoxynucleotidyl transferase (TdT) were added to each sample and incubated in a dark and humidified chamber for 2 h at 37 °C. Samples were washed trice with ice-cold phosphate-buffered saline (PBS) containing 0.1% Triton X-100 and 5 mg/mL bovine serum albumin (BSA). 2-(4-Amidinophenyl)-6-indolecarbamidine dihydrochloride (DAPI) (0.2 µg/mL) counterstain was performed (10 min, 37 °C, dark and humidified conditions). After three additional washes with cold PBS, one drop of mounting solution was added, then they were observed and imaged under a fluorescence microscope (Leica DM 6000, Leica, Frankfurt am Main, Germany) (20× magnification) with excitation/emission wavelength maxima of 490 nm/515 nm (CF^TM488A) or 350 nm/460 nm (DAPI). Representative fields were shown. The experiments were repeated three times.

Structure (SMILES): Cc1ccc(C)c2c1c1cc(Br)ccc1n2CCCCCCCS [5c, 7-(6-Bromo-1,4-dimethyl-9H-carbazol-9-yl)-heptane-1-thiol]
- apoptosis / DNA damage (TUNEL): induced DNA damage and led to cell death triggering the apoptotic mechanism
